In the supplement of paper PMC11061612:

Assays:
[1] = system: PANC-04-03 (Pancreatic Carcinoma); test: combination Emax (second highest fraction inhibited in the dose matrix, 72 h); higher = more inhibition; extreme values may be limits of the assay
In short: (§1)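 After 24 hours at 37°C and 5% CO2 in 1536-well plates, cells in DMEM/F12 or RPMI plus 10% FBS received two-drug dose matrices for 72 hours. Viability came from CellTiter-Glo 2.0 luminescence and was scaled as inhibition, anchored at 0 by vehicle wells and at 1 by blank wells. Combination Emax is taken as the second-highest inhibition in the matrix, and Bliss excess as the observed combination effect less EA + EB − EA·EB, with EA and EB the single-agent effects.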

[2] = system: TGW (Neuroblastoma); test: as above
In short: as §1

SMILES | combination Emax [1] | combination Emax [2]
O=C(c1cc(Cc2n[nH]c(=O)c3ccccc23)ccc1F)N1CCN(C(=O)C2CC2)CC1 [Olaparib] + Cc1c2c(nn1C)CSCc1cc(n(C)n1)CSc1cc(c3ccccc3c1)OCCCc1c(C(=O)O)n(C)c3c-2c(Cl)ccc13 [AZD5991] (first compound max 10 µM, 7x7, partner max 1 µM) | 0.0799 | 0.192
NC1(C(=O)N[C@@H](CCO)c2ccc(Cl)cc2)CCN(c2ncnc3[nH]ccc23)CC1 [Capivasertib] + CC(=O)c1c(C)c2cnc(Nc3ccc(N4CCNCC4)cn3)nc2n(C2CCCC2)c1=O [Palbociclib] (first compound max 10 µM, 7x7, partner max 10 µM) | 0.261 | 0.378
CC(=O)c1c(C)c2cnc(Nc3ccc(N4CCNCC4)cn3)nc2n(C2CCCC2)c1=O [Palbociclib] + Cc1c2c(nn1C)CSCc1cc(n(C)n1)CSc1cc(c3ccccc3c1)OCCCc1c(C(=O)O)n(C)c3c-2c(Cl)ccc13 [AZD5991] (first compound max 10 µM, 7x7, partner max 1 µM) | 0.196 | 0.24
COc1nnc2ccc(N3CCC(c4ccc(OCCN5CCN(C)C(=O)[C@H]5C)cc4)CC3)nn12 [AZD5153] + Cc1c2c(nn1C)CSCc1cc(n(C)n1)CSc1cc(c3ccccc3c1)OCCCc1c(C(=O)O)n(C)c3c-2c(Cl)ccc13 [AZD5991] (first compound max 1 µM, 7x7, partner max 1 µM) | 0.442 | 0.808
CC(=O)c1c(C)c2cnc(Nc3ccc(N4CCNCC4)cn3)nc2n(C2CCCC2)c1=O [Palbociclib] + CC1(C)CCC(CN2CCN(c3ccc(C(=O)NS(=O)(=O)c4ccc(NCC5CCOCC5)c([N+](=O)[O-])c4)c(Oc4cnc5[nH]ccc5c4)c3)CC2)=C(c2ccc(Cl)cc2)C1 [Venetoclax] (first compound max 10 µM, 7x7, partner max 1 µM) | 0.0967 | 0.226
O=C(c1cc(Cc2n[nH]c(=O)c3ccccc23)ccc1F)N1CCN(C(=O)C2CC2)CC1 [Olaparib] + CN(CC[C@H](CSC1=CC=CC=C1)NC2=C(C=C(C=C2)S(=O)(=O)NC(=O)C3=CC=C(C=C3)N4CCC(CC4)[C@H](C5=CC=CC=C5C6=CC=C(C=C6)Cl)O)S(=O)(=O)C(F)(F)F)CCO [AZD4320] (first compound max 10 µM, 7x7, partner max 1 µM) | 0.121 | 0.925
Cc1c2c(nn1C)CSCc1cc(n(C)n1)CSc1cc(c3ccccc3c1)OCCCc1c(C(=O)O)n(C)c3c-2c(Cl)ccc13 [AZD5991] + CS(=O)(=O)CCNCc1ccc(-c2ccc3ncnc(Nc4ccc(OCc5cccc(F)c5)c(Cl)c4)c3c2)o1 [Lapatinib] (first compound max 1 µM, 7x7, partner max 10 µM) | 0.343 | 0.312
COc1nnc2ccc(N3CCC(c4ccc(OCCN5CCN(C)C(=O)[C@H]5C)cc4)CC3)nn12 [AZD5153] + Cn1cnc2c(F)c(Nc3ccc(Br)cc3Cl)c(C(=O)NOCCO)cc21 [Selumetinib] (first compound max 1 µM, 7x7, partner max 10 µM) | 0.548 | 0.602
Cn1cnc2c(F)c(Nc3ccc(Br)cc3Cl)c(C(=O)NOCCO)cc21 [Selumetinib] + C[C@@H]1COCCN1C2=NC(=NC(=C2)C3(CC3)[S@](=N)(=O)C)C4=C5C=CNC5=NC=C4 [AZD6738] (first compound max 10 µM, 7x7, partner max 10 µM) | 0.516 | 0.577
COc1nnc2ccc(N3CCC(c4ccc(OCCN5CCN(C)C(=O)[C@H]5C)cc4)CC3)nn12 [AZD5153] + C[C@@H]1COCCN1C2=NC(=NC(=C2)C3(CC3)[S@](=N)(=O)C)C4=C5C=CNC5=NC=C4 [AZD6738] (first compound max 1 µM, 7x7, partner max 10 µM) | 0.545 | 0.728
CC1(C)CCC(CN2CCN(c3ccc(C(=O)NS(=O)(=O)c4ccc(NCC5CCOCC5)c([N+](=O)[O-])c4)c(Oc4cnc5[nH]ccc5c4)c3)CC2)=C(c2ccc(Cl)cc2)C1 [Venetoclax] + CS(=O)(=O)CCNCc1ccc(-c2ccc3ncnc(Nc4ccc(OCc5cccc(F)c5)c(Cl)c4)c3c2)o1 [Lapatinib] (first compound max 1 µM, 7x7, partner max 10 µM) | 0.291 | 0.459
Cn1cnc2c(F)c(Nc3ccc(Br)cc3Cl)c(C(=O)NOCCO)cc21 [Selumetinib] + CCN(CCO)CCCOc1ccc2c(Nc3cc(CC(=O)Nc4cccc(F)c4)[nH]n3)ncnc2c1 [AZD2811] (first compound max 10 µM, 7x7, partner max 1 µM) | 0.479 | 0.0777
C[C@@H](Nc1cc(F)cc(F)c1)c1cc(C(=O)N(C)C)cc2c(=O)cc(N3CCOCC3)oc12 [AZD8186] + CC(=O)c1c(C)c2cnc(Nc3ccc(N4CCNCC4)cn3)nc2n(C2CCCC2)c1=O [Palbociclib] (first compound max 10 µM, 7x7, partner max 10 µM) | 0.344 | 0.32
C[C@@H]1COCCN1c1cc(C2([S@](C)(=N)=O)CC2)nc(-c2ccnc3[nH]ccc23)n1 [AZD6738] + Nc1ccn([C@@H]2O[C@H](CO)[C@@H](O)C2(F)F)c(=O)n1 [Gemcitabine] (first compound max 10 µM, 7x7, partner max 0.3 µM) | 0.627 | 0.897
C[C@@H](Nc1cc(F)cc(F)c1)c1cc(C(=O)N(C)C)cc2c(=O)cc(N3CCOCC3)oc12 [AZD8186] + C1CN(CCC1(C(=O)N[C@@H](CCO)C2=CC=C(C=C2)Cl)N)C3=NC=NC4=C3C=CN4 [AZD5363] (first compound max 10 µM, 7x7, partner max 10 µM) | 0.275 | 0.258
NC1(C(=O)N[C@@H](CCO)c2ccc(Cl)cc2)CCN(c2ncnc3[nH]ccc23)CC1 [Capivasertib] + C[C@@H]1COCCN1C2=NC(=NC(=C2)C3(CC3)[S@](=N)(=O)C)C4=C5C=CNC5=NC=C4 [AZD6738] (first compound max 10 µM, 7x7, partner max 10 µM) | 0.575 | 0.614
NC1(C(=O)N[C@@H](CCO)c2ccc(Cl)cc2)CCN(c2ncnc3[nH]ccc23)CC1 [Capivasertib] + Cn1cnc2c(F)c(Nc3ccc(Br)cc3Cl)c(C(=O)NOCCO)cc21 [Selumetinib] (first compound max 10 µM, 7x7, partner max 10 µM) | 0.576 | 0.262
O=C(c1cc(Cc2n[nH]c(=O)c3ccccc23)ccc1F)N1CCN(C(=O)C2CC2)CC1 [Olaparib] + COc1nnc2ccc(N3CCC(c4ccc(OCCN5CCN(C)C(=O)[C@H]5C)cc4)CC3)nn12 [AZD5153] (first compound max 10 µM, 7x7, partner max 1 µM) | 0.52 | 0.476
Cc1c2c(nn1C)CSCc1cc(n(C)n1)CSc1cc(c3ccccc3c1)OCCCc1c(C(=O)O)n(C)c3c-2c(Cl)ccc13 [AZD5991] + Nc1ccn([C@@H]2O[C@H](CO)[C@@H](O)C2(F)F)c(=O)n1 [Gemcitabine] (first compound max 1 µM, 7x7, partner max 0.3 µM) | 0.548 | 0.621
CS(=O)(=O)CCNCc1ccc(-c2ccc3ncnc(Nc4ccc(OCc5cccc(F)c5)c(Cl)c4)c3c2)o1 [Lapatinib] + Cn1cnc2c(F)c(Nc3ccc(Br)cc3Cl)c(C(=O)NOCCO)cc21 [Selumetinib] (first compound max 10 µM, 7x7, partner max 10 µM) | 0.77 | 0.207
COc1nnc2ccc(N3CCC(c4ccc(OCCN5CCN(C)C(=O)[C@H]5C)cc4)CC3)nn12 [AZD5153] + CCN(CCO)CCCOc1ccc2c(Nc3cc(CC(=O)Nc4cccc(F)c4)[nH]n3)ncnc2c1 [AZD2811] (first compound max 1 µM, 7x7, partner max 1 µM) | 0.487 | 0.501
NC1(C(=O)N[C@@H](CCO)c2ccc(Cl)cc2)CCN(c2ncnc3[nH]ccc23)CC1 [Capivasertib] + CC(C)n1c(=O)n(C)c2cnc3cc(F)c(-c4ccc(OCCCN5CCCCC5)nc4)cc3c21 [AZD1390] (first compound max 10 µM, 7x7, partner max 0.3 µM) | 0.318 | 0.172
NC1(C(=O)N[C@@H](CCO)c2ccc(Cl)cc2)CCN(c2ncnc3[nH]ccc23)CC1 [Capivasertib] + CCN(CCO)CCCOc1ccc2c(Nc3cc(CC(=O)Nc4cccc(F)c4)[nH]n3)ncnc2c1 [AZD2811] (first compound max 10 µM, 7x7, partner max 1 µM) | 0.305 | 0.273
C=CCn1c(=O)c2cnc(Nc3ccc(N4CCN(C)CC4)cc3)nc2n1-c1cccc(C(C)(C)O)n1 [AZD1775] + Nc1ccn([C@@H]2O[C@H](CO)[C@@H](O)C2(F)F)c(=O)n1 [Gemcitabine] (first compound max 1 µM, partner max 0.3 µM) | 0.526 | 0.809
O=C(c1cc(Cc2n[nH]c(=O)c3ccccc23)ccc1F)N1CCN(C(=O)C2CC2)CC1 [Olaparib] + CC1(C)CCC(CN2CCN(c3ccc(C(=O)NS(=O)(=O)c4ccc(NCC5CCOCC5)c([N+](=O)[O-])c4)c(Oc4cnc5[nH]ccc5c4)c3)CC2)=C(c2ccc(Cl)cc2)C1 [Venetoclax] (first compound max 10 µM, 7x7, partner max 1 µM) | 0.176 | 0.429
Cc1nc(-c2cn3c(n2)-c2ccc(-c4cnn(C(C)(C)C(N)=O)c4)cc2OCC3)n(C(C)C)n1 [Taselisib] + O=C(Nc1ccc2[nH]nc(-c3ccncc3)c2c1)[C@@H]1CCN(CC(=O)N2CCN(c3ccc(-c4ncccn4)cc3)CC2)C1 [SCH772984] (first compound max 10 µM, 7x7, partner max 5 µM) | 0.905 | 0.516
COc1nnc2ccc(N3CCC(c4ccc(OCCN5CCN(C)C(=O)[C@H]5C)cc4)CC3)nn12 [AZD5153] + C=CCn1c(=O)c2cnc(Nc3ccc(N4CCN(C)CC4)cc3)nc2n1-c1cccc(C(C)(C)O)n1 [AZD1775] (first compound max 1 µM, partner max 1 µM) | 0.484 | 0.674
